Assay results from patent publication US8486968B2, “Compounds” (Boehringer Ingelheim International GmbH, priority 2010, dated 2013).

Legend:
mPGES-1 [1] = molecular target: T1, mPGES-1 (Homo sapiens, UniProt O14684); assay: A549 cell-based assay (PGE2 formation, IL-1β stimulated, 50% human serum); parameters: host or cells: A549 cells
T1 sequence (O14684 1-152): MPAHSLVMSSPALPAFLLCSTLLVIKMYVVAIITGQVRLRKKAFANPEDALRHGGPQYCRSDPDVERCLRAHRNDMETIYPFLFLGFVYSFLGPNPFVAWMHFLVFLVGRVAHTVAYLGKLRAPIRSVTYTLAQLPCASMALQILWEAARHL
Protocol: Although the enzymatic assay is a high throughput assay the disadvantage is that it uses a recombinant protein which is not in its natural environment. Accordingly a cellular assay was established in which a cell line of human origin (A549) expressing the mPGES-1 protein was used. In addition in order to mimic the situation in humans in which compounds can be bound to plasma proteins 50% human serum is added in the assay. By having the combination of testing mPGES-1 in a cellular environment and the presence of 50% human serum this assay has a higher relevance to judge the therapeutic potential of a mPGES-inhibitor than the pure enzyme assay.
A549 cells (ATCC: CCL-185) are grown to about 90% confluence in F-12K Nutrient Mixture (Kaighn's Mod. Gibco) containing 10% FBS in a humified incubator at 37° C. and 5% CO2. Cells were detached using Trypsin-EDTA. A549 cells were seeded in a 384-well collagene plate at a density of 7000 cells/well (50 μl) in F-12 medium containing 1% Penicillin-Streptomycin and 50% human serum. The cells were allowed to attach for 3-4 h. After that the cells were incubated for 20-24 h in F-12k medium supplemented with 50% human serum, 1% Penicillin-Streptomycin and containing IL-1β at a final concentration of 5 ng/ml as well as 10 nM arachidonic acid in the presence of a vehicle or a test compound. The total volume is 100 μl.
Concentrations of PGE2 in the cell free medium (10 μl) were measured using a commercially available HTRF kit from Cisbio (as described above). The PGE2 formation in the absence of test compound was taken as 100%.
IC50 values were derived from at 6-8 point titrations using conventional software.

mPGES-1 [2] = molecular target: T1, mPGES-1; assay: mPGES-1 enzyme assay (HTRF detection of PGE2); assay type: biochemical; parameters: made in house; host or cells: Rosetta E. coli (membrane/microsome fraction)
Protocol: Microsomes from Rosetta E. coli bacteria expressing recombinant human mPGES-1 can be derived as described below:
Inoculate 5 ml LB with Ampicilin (50 μg/ml) and Chloramphenicol (34 μg/ml) with bacteria from freeze culture. Incubate 8 h at 37° C. with 200 rpm. Thereafter, inoculate 500-1000 ml LB containing Amp and Chloro with the 5 ml on culture and grow to OD640 of 0.8-1.0. Chill the culture to +4° C. before induction. Induce the culture with IPTG at a final concentration of 400 μM. Express the protein at room temp 18-23° C. with 200 rpm shaking over night.
The following steps can be performed on the following day: • 1. Spin down the cells in 250 ml centrifuge flasks for 15 min at 7000 rpm (Beckmann Coulte Avanti J-E centrifuge) • 2. Dissolve the pellet from 250 ml culture in 12.5 ml homogenization buffer • 3. (15 mM Tris-HCL pH8, 1 mM EDTA pH8, […], 2.5 mM GSH, 1 Tablet Protease inhibitor per 50 ml buffer) • 4. Disintegrate the cells by sonication, 5×10 seconds at 48% amplitude of a 750 W sonifier • 5. Add 2.5 ml MgCl2 (100 mM) and DNase 12.5 μl (0.8 mg/ml) and incubate on ice for 30 min • 6. Spin down the bacteria debris and save the supernatant, 7000 rpm for 15 min • 7. Isolate the protein containing membranes in the supernatant by ultracentrifugation 120000×g for 2 hour at 4° C. (Sorvall T880 rotor). • 8. Discard the supernatant and dissolve the pellet in 20 mM Potassium phosphate buffer pH 7.4 (KH2PO4 and K2HPO4) buffer by sonication (5×10 s, 30% of a 50 W sonifier) and aliquot the enzyme and store aliquots at −80° C.
Before each experiment is performed an aliquot of the enzyme is thawed and it can then be dissolved in 0.1 M Potassium phosphate buffer pH7.4 (KH2PO4 and K2HPO4) buffer containing 2.5 mM GSH.
The aim of this assay is the determine the affinity of a test compound for the mPGES-1 enzyme.
47 μl of recombinant human mPGES-1 (˜0.5 μg protein/well) containing microsomal suspension in a buffer containing GSH, (2.5 mmol/L L-Glutathione reduced, dissolved in 0.1 mol/L Phosphat Buffer pH 7.4) is dispensed in a 384-well plate and thereafter 1 μl of the test compound(s) is/are added and incubated for 25 minutes at room temperature. The enzyme reaction is started by the addition of 2 μl PGH2 (final conc. 2 μM) dissolved in water-free Diglyme. After 60 seconds the reaction is terminated by addition of a stop solution containing FeCl2 (10 μL 0.074 mol/l FeCl2). The samples are diluted between 1:25 in PBS (Phosphate Buffered Saline). 10 μl of the diluted samples are transferred to 384-well low volume plate. In order to quantify the amount of PGE2 that has been formed, a homogenous time resolved fluorescent (HTRF) detecting of PGE2 has been performed using a commercially available kit from Cisbio according to the manufactures recommendation. This HTRF-based assay has been described in detail (see: Goedken et al., J Biomol Screen, 2008, 13(7), 619-625). Briefly, the diluted samples are mixed with 5 μl PGE2-d2 conjungate and 5 μl anti-PGE2 cryptate conjungate. After an incubation period of the plates over night, the fluorescence is measured by the use of an appropriate microplate reader.
The fluorescence of Europium cryptate (maxex=307 nm, maxem=620 nm) and d2-PGE2 (maxex=620 nm, maxem=665 nm) are measured.
The extent of the specific HTRF is measured as a ratio of the emission intensity at 665 nm vs. that at 620 nm at an excitation puls of 320 nm. The quantification plate contains also wells with different concentrations of PGE2 as calibration curve for the calculation of the PGE2 concentrations from the HTRF ratio values.
From all mPGES enzyme assay the background is subtracted and the IC50 is calculated over a nonlinear regression with conventional software.

[3] = A549 cells, IL-1β 5 ng/ml, 20-24 h, Table B, read-out: mPGES-1 inhibitory effect, IC50, cell assay
[4] = recombinant human mPGES-1 microsomes, PGH2 2 μM, Table A, read-out: mPGES-1 inhibitory effect, IC50, enzyme assay
[5] = Table C comparison of enzym and cell IC50, A549 cells, read-out: Cell IC50
[6] = Table C comparison of enzym and cell IC50, read-out: Enzym IC50

SMILES | IC50 (mPGES-1 [1]; [3]) [nM] | IC50 (mPGES-1 [2]; [4]) [nM] | IC50 (mPGES-1 [1]; [5]) [nM] | IC50 (mPGES-1 [2]; [6]) [nM]
Cn1c(Nc2c(Cl)ccc(CNC(=O)C(C)(C)C)c2Cl)nc2cc(C(=O)NCc3ncccc3C(F)(F)F)c(N3CCC(C(F)(F)F)CC3)nc21 [Example 43] | 6 | 5 | – | –
CN(CC(F)F)c1nc2c(cc1C(=O)N[C@H]1CC[C@H](C(F)(F)F)CC1)nc(Nc1cc(CNC(=O)C3(C(F)(F)F)CC3)ccc1Cl)n2C [Example 5] | 58 | 9 | – | –
Cn1c(Nc2cc(CNC(=O)C3(C(F)(F)F)CC3)ccc2Cl)nc2cc(C(=O)Nc3ccc(F)c(Cl)c3)c(OCC(F)F)cc21 [reference compound] | – | – | 8 | 1
Cn1c(Nc2c(Cl)ccc(CNC(=O)C(C)(C)C)c2Cl)nc2cc(C(=O)NCc3ccc(F)cc3C(F)(F)F)c(N3CCC(C(F)(F)F)CC3)nc21 [Example 38] | 16 | 2 | – | –
Cn1c(Nc2c(Cl)ccc(CNC(=O)C(C)(C)C)c2Cl)nc2cc(C(=O)Nc3ccc(F)c(Cl)c3)c(N3CCC(C(F)(F)F)CC3)nc21 [Example 41] | 2 | 1 | – | –
Cn1c(Nc2cc(CNC(=O)C(C)(C)C)ccc2Cl)nc2cc(C(=O)N[C@H]3CC[C@H](C(F)(F)F)CC3)c(OCC(F)(F)F)cc21 [reference compound] | – | – | 89 | 8
Cn1c(Nc2cc(CNC(=O)C3(C(F)(F)F)CC3)ccc2Cl)nc2cc(C(=O)N[C@H]3CC[C@H](C(F)(F)F)CC3)c(N3CCC(C(F)(F)F)CC3)nc21 [Example 1, N-(trans-4-Trifluoromethyl-cyclohexyl)-2-{2-chloro-5-[(1-trifluoromethyl-cyclopropyl-carbonylamino)methyl]-phenylamino}-5-[4-trifluoromethyl-piperidinyl]-3-methyl-3H-imidazo[4,5-b]pyridine-6-carboxamide] | 7 | 5 | – | –
Cn1c(Nc2c(Cl)ccc(CNC(=O)C(C)(C)C)c2Cl)nc2cc(C(=O)Nc3cccc(C(F)(F)F)n3)c(N3CCC(C(F)(F)F)CC3)nc21 [Example 44] | 56 | 4 | – | –
CC(C)(C)OC(=O)NCc1cc(F)c(Cl)c(Nc2nc3cc(C(=O)N[C@H]4CC[C@H](C(F)(F)F)CC4)c(N4CCC(F)CC4)nc3[nH]2)c1Cl [Example 14, N-(trans-4-Trifluoromethyl-cyclohexyl)-2-{2,6-dichloro-5-fluoro-3-[(tert.butoxycarbonylamino)-methyl]-phenylamino}-5-[4-fluoro-piperidinyl]-3H-imidazo[4,5-b]pyridine-6-carboxamide] | 86 | 35 | – | –

Now from value to compound:

IC50 (mPGES-1 [1]; [3]) [nM] | IC50 (mPGES-1 [2]; [4]) [nM] | IC50 (mPGES-1 [1]; [5]) [nM] | IC50 (mPGES-1 [2]; [6]) [nM] | SMILES
2 | 3 | – | – | CC(C)(C)C(=O)NCc1ccc(Cl)c(Nc2nc3cc(C(=O)N[C@H]4CC[C@H](C(F)(F)F)CC4)c(N4CCC(F)CC4)nc3[nH]2)c1Cl [Example 3, N-(trans-4-Trifluoromethyl-cyclohexyl)-2-{2,6-dichloro-3-[(2,2-dimethyl-propionylamino)-methyl]-phenylamino}-5-[4-fluoro-piperidinyl]-3H-imidazo[4,5-b]pyridine-6-carboxamide]
3 | 3 | – | – | CN(Cc1nccn1C)c1nc2c(cc1C(=O)N[C@H]1CC[C@H](C(F)(F)F)CC1)nc(Nc1c(Cl)ccc(CNC(=O)C(C)(C)C)c1Cl)n2C [Example 16]
3 | 2 | – | – | CN(c1nc2c(cc1C(=O)N[C@H]1CC[C@H](C(F)(F)F)CC1)nc(Nc1c(Cl)ccc(CNC(=O)C(C)(C)C)c1Cl)n2C)C1COC1 [Example 20]
8 | < 1 | – | – | Cn1c(Nc2c(Cl)ccc(CNC(=O)C(C)(C)C)c2Cl)nc2cc(C(=O)NCC3CC3)c(N3CCC(C(F)(F)F)CC3)nc21 [Example 46]
90 | 4 | – | – | CN(Cc1nncn1C)c1nc2c(cc1C(=O)N[C@H]1CC[C@H](C(F)(F)F)CC1)nc(Nc1c(Cl)ccc(CNC(=O)C(C)(C)C)c1Cl)n2C [Example 21]
3 | 1 | – | – | CN(CC(F)F)c1nc2[nH]c(Nc3c(Cl)ccc(CNC(=O)C(C)(C)C)c3Cl)nc2cc1C(=O)N[C@H]1CC[C@H](C(F)(F)F)CC1 [Example 4]
2 | 2 | – | – | CC(C)(C)C(=O)NCc1ccc(Cl)c(Nc2nc3cc(C(=O)N[C@H]4CC[C@H](C(F)(F)F)CC4)c(N4CC5CC5C4)nc3[nH]2)c1Cl (stereo partly shown) [Example 12]
20 | 3 | – | – | CC(NC(=O)c1cc2nc(Nc3c(Cl)ccc(CNC(=O)C(C)(C)C)c3Cl)n(C)c2nc1N1CCC(C(F)(F)F)CC1)C(F)(F)F (stereo not shown) [Example 31]
6 | 2 | – | – | CC(C)(C)C(=O)NCc1ccc(Cl)c(Nc2nc3cc(C(=O)N[C@H]4CC[C@H](C(F)(F)F)CC4)c(N4CCC(F)(F)C4)nc3[nH]2)c1Cl [Example 9]
16 | 5 | – | – | Cn1c(Nc2c(Cl)ccc(CNC(=O)C(C)(C)C)c2Cl)nc2cc(C(=O)NC3CC(F)(F)C3)c(N3CCC(C(F)(F)F)CC3)nc21 [Example 35]
10 | 2 | – | – | CC(C)(C)C(=O)NCc1cc(F)c(Cl)c(Nc2nc3cc(C(=O)N[C@H]4CC[C@H](C(F)(F)F)CC4)c(N4CCC(F)CC4)nc3[nH]2)c1Cl [Example 15, N-(trans-4-Trifluoromethyl-cyclohexyl)-2-{2,6-dichloro-5-fluoro-3-[(2,2-dimethyl-propionylamino)-methyl]-phenylamino}-5-[4-fluoro-piperidinyl]-3H-imidazo[4,5-b]pyridine-6-carboxamide]
